How the values were obtained:
[1] = tested on: S1 cells; assay: Cytotoxicity of anticancer drugs in parental S1 (0.1% DMSO); assay type: cell-based, human
[2] = target: T1, BCRP (Homo sapiens, UniProt Q9UNQ0, R482G); assay: Intracellular Ac15(Az8)2 level in S1 and S1M180 (BCRP substrate test, UPLC-MS/MS); assay type: cell-based
T1 construct: endogenous in cells; host or cells: S1M180 (human colon carcinoma, mitoxantrone-selected)
T1 sequence (Q9UNQ0 1-655 R482G): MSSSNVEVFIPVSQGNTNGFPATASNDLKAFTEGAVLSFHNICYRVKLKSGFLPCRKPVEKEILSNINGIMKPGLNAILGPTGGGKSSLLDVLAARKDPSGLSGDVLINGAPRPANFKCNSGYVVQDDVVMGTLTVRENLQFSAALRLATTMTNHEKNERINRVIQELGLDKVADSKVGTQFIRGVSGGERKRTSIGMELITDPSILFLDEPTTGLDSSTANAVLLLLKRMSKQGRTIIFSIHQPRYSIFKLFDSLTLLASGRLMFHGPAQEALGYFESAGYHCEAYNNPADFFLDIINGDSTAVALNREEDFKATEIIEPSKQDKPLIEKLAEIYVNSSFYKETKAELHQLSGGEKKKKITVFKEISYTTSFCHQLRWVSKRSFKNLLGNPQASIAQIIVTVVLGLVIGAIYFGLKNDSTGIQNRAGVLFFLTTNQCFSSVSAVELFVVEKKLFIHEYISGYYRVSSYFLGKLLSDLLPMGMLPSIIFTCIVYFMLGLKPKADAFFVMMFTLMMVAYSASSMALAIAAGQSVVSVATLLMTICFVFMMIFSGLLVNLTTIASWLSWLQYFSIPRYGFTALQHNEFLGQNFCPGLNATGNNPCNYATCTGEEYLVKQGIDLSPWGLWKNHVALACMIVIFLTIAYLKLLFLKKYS
Protocol: Figure 2 Effect of Ac15(Az8)2 on intracellular accumulation of BCRP-substrates in S1 and S1M180 cells. Cells were pre-treated with 0.1% DMSO, 100 nM, or 1000 nM Ac15(Az8)2 and then incubated with BCRP substrates. (A) Topotecan accumulation. (B) DOX accumulation. The intracellular level of drug after treatment was normalized to that of S1 cells after incubating with 0.1% DMSO. Student unpaired two-tailed t-test was conducted as indicated (** p < 0.01, *** p < 0.001). (C) To measure DOX efflux, S1M180 cells were pre-incubated with medium containing 20 μM DOX for 1 h at 37 °C. Cells were then washed and further incubated with or without 1 µM of Ac15(Az8)2. At 0, 5, 10, 30, 60, 120, and 180 min, the cells were harvested to measure the intracellular DOX level. (D) To determine intracellular Ac15(Az8)2 concentration, 1 × 10^7 cells were incubated with 1 µM of Ac15(Az8)2 at 37 °C for 2 h. Cells were then washed with ice-cold PBS. To the cell pellet, acetonitrile was added to lyse the cells, and the supernatant was saved for Ac15(Az8)2 determination using UPLC–MS/MS.
BCRP is an efflux transporter with broad substrate selectivity. In order to study whether Ac15(Az8)2 is itself a substrate of BCRP, its intracellular level was measured after treating the S1 or S1M180 cells for 2 h.

[3] = Pharmacokinetics of Ac15(Az8)2 in mice; assay type: in vivo; details: female, Balb/c, mouse, ip, 45 mg/kg I.P., plasma
Protocol: Ac15(Az8)2 and topotecan in plasma were analyzed by UPLC–MS/MS. UPLC (Acquity Waters) and triple quadrupole mass analyzer (Quattro Ultima) with an electrospray ionization source in the positive mode were used to quantify Ac15(Az8)2 and topotecan. Acquity UPLC BEH C8 and C18 column (1.7 µm 2.1 × 50 mm) from Waters was used to separate Ac15(Az8)2 and topotecan, respectively. Mobile phases used for Ac15(Az8)2 analysis were water and acetonitrile. Ac15(Az8)2 and its internal standard Ac15(Az5)2 (Figure S2) were monitored at m/z 608 → m/z 149 and m/z 594 → […], respectively. Mobile phases used for topotecan analysis were water and methanol. Topotecan and its internal standard tetracycline were monitored at m/z 422 → m/z 377 and m/z 445 → m/z 410, respectively.
Female Balb/c mice at 4–6 weeks were used for the pharmacokinetic studies. Ac15(Az8)2 at 4 mg/mL was prepared in 10% NMP, 10% Cremophor-EL and 80% H2O. Topotecan was dissolved in H2O at 1 mg/mL, and 45 mg/kg Ac15(Az8)2 was administered through intraperitoneal (I.P.) injection. Blood was collected at 10, 30, 60, 70, 90, 120, 180, 240, 300, 480, 720 and 1440 min by cardiac puncture and stored in heparinized tubes for centrifugation at 16,000 g for 5 min. For topotecan pharmacokinetic study, 2 mg/kg topotecan was I.P. administered one hour after 45 mg/kg Ac15(Az8)2 or solvent injection. Blood was collected at 10, 30, 60, 120, 240 and 480 min post-topotecan administration. All animal studies were approved by the Animal Subjects Ethics Sub-committee of the Hong Kong Polytechnic University and performed in accordance with the Cap340 Animal License of the Department of Health in Hong Kong.

[4] = tested on: S1M180 xenograft; assay: In vivo topotecan accumulation in tumor and plasma of S1M180-bearing mice; details: 45 mg/kg Ac15(Az8)2 I.P. one hour prior to 6 mg/kg topotecan I.P.; 5 h post administration
Source text: (A) S1 xenograft. (B) S1M180 xenograft. There were 3 treatment groups in S1 and S1M180 xenograft model. Treatments were given as indicated by an arrow (↑). % of tumor volume reduction was compared among different treatment groups on days 55 and 71. a, b, and c = mean tumor volume of solvent control, topotecan alone, and combination treatment groups on day 55, respectively. d and e = mean tumor volume of topotecan alone and combination treatment groups on day 71. (C) Tumor weight of S1M180-bearing mice on termination day. (D) % change of tumor volume and tumor doubling time of S1M180 xenograft were determined on days 55 and 71. […] Number of animal death was monitored during the efficacy study. (E) Body weight of S1M180-bearing mice. (F) To measure plasma and intratumor level of topotecan, S1M180-bearing mice were administered with 45 mg/kg (I.P.) of Ac15(Az8)2 one hour prior to 6 mg/kg (I.P.) of topotecan administration. Five hours after topotecan administration, the mice were sacrificed. Plasma and tumor were collected for analyzing topotecan level using UPLC–MS/MS. Student’s unpaired two-tailed t-test was performed between combination group and topotecan alone group or solvent control group as indicated (* p < 0.05, ** p < 0.01, *** p < 0.001).

| SMILES | IC50 ([1]; Homo sapiens, S1 + 0.1% DMSO, mean ± S.D., n = 3, read-out: IC50 of topotecan) | RF (Relative Fold), topotecan: resistance of S1M180 compared to parental S1 ([1]; S1 + 0.1% DMSO vs S1M180 + 0.1% DMSO) | Intracellular level of Ac15(Az8)2 in S1M180 higher than in S1 ([2]; 1 µM, 2 h, 37 °C) | Transport substrate of BCRP ([2]; from intracellular levels in S1 vs S1M180) | AUC(0-inf) [3] | Cmax [3] | Tmax [3] | half-life ([3]; read-out: Half-life (E-phase) (converted)) | Effect on plasma level of topotecan [4] |
| --- | --- | --- | --- | --- | --- | --- | --- | --- | --- |
| CC[C@@]1(O)C(=O)OCc2c1cc1n(c2=O)Cc2cc3c(CN(C)C)c(O)ccc3nc2-1 [topotecan] | 446 ± 20 nM | 27.9 |  |  |  |  |  |  |  |
| COC(=O)c1cccc(COc2c(-c3ccc(OCCOCCn4cc(CN(Cc5ccccc5)Cc5cn(CCOCCOc6ccc(-c7oc8ccccc8c(=O)c7OCc7cccc(C(=O)OC)c7)cc6)nn5)nn4)cc3)oc3ccccc3c2=O)c1 [Ac15(Az8)2] |  |  | about 20% | not a transport substrate of BCRP | 83500 ng·h/mL | 15700 ng/mL | 3 h | 10.6 h | did not change significantly |
